Non-standard residues stand in square brackets, D forms with d. Residues, ends and D or L forms follow the SMILES beside them. No end group written: not given here. *: point of attachment. Desaminotyrosyl = O=C(CCc1ccc(O)cc1)*; Agmatine = N=C(N)NCCCCN*; Nle = CCCC[C@H](N)C(=O)O; Orn = NCCC[C@H](N)C(=O)O; Abu = CC[C@H](N)C(=O)O
Columns and labels:
[1] = tested on: superfused rat pituitary cell system; test: GH release in superfused rat pituitary cell system (in vitro); type: cell-based; conditions: 0.1-0.5 nM, 3 min administration, superfused rat pituitary cells
Method: The compounds of the present invention were tested both in vitro and in vivo. The levels of GH released in vivo by the synthetic peptides, following their intravenous (i.v.) or subcutaneous (sc.) injection in rats, are shown in Tables 2 and 3 respectively. The potencies of the peptides, based on 4-point assays, were calculated in all the Examples of this specification, by the factorial analyses of Bliss and Marks with 95% confidence limits.
Growth hormone releasing activity in vitro is assayed by using a superfused rat pituitary cell system as described in S. Vigh and A. V. Schally, Peptides 5, Suppl: 241-347, 1984, which is incorporated by reference herein. Each peptide, hGH-RH (1-29)NH2 (as control) and the synthetic peptide hGH-RH analogs of the present invention, is administered for 3 minutes (1 ml. perfusate) at various concentrations as shown below. Fractions of 1 ml are coIlected and the GH content in each is determined by RIA.

GH-deficient children = conditions: subcutaneously twice a day; cited from earlier work

Molecule	Potency relative to hGH-RH(1-29)NH2 = 1 (GH release in vitro) [1]	share of GH-deficient children in whom linear growth was promoted (GH-deficient children)
CCCC[C@H](NC(=O)[C@@H](NC(=O)[C@H](CC(=O)O)NC(=O)[C@H](CCC(N)=O)NC(=O)[C@H](CC(C)C)NC(=O)[C@H](CC(C)C)NC(=O)[C@H](CCCN)NC(=O)[C@H](CCCNC(=N)N)NC(=O)[C@H](C)NC(=O)[C@H](CO)NC(=O)[C@H](CC(C)C)NC(=O)[C@H](CCC(N)=O)NC(=O)[C@H](CC)NC(=O)[C@H](CC(C)C)NC(=O)[C@@H](NC(=O)[C@H](CCCN)NC(=O)[C@H](CCCNC(=N)N)NC(=O)[C@H](Cc1ccc(O)cc1)NC(=O)[C@H](CO)NC(=O)[C@H](CC(N)=O)NC(=O)[C@@H](NC(=O)[C@H](Cc1ccccc1)NC(=O)[C@@H](NC(=O)[C@H](C)NC(=O)[C@H](CC(=O)O)NC(=O)[C@H](C)NC(=O)CCc1ccc(O)cc1)[C@@H](C)CC)[C@@H](C)O)C(C)C)[C@@H](C)CC)C(=O)N[C@@H](CO)C(=O)NCCCCNC(=N)N [Example I, (Dat^1,Orn ^12,21,Abu^15,Nle^27,Agm^29)hGH-RH(1-29)] (Desaminotyrosyl-ADAIFTNSYR[Orn]VL[Abu]QLSAR[Orn]LLQDI[Nle]S-Agmatine)	5.9	
CCCC[C@H](NC(=O)[C@@H](NC(=O)[C@H](CC(=O)O)NC(=O)[C@H](CCC(N)=O)NC(=O)[C@H](CC(C)C)NC(=O)[C@H](CC(C)C)NC(=O)[C@H](CCCN)NC(=O)[C@H](CCCNC(=N)N)NC(=O)[C@H](C)NC(=O)[C@H](CO)NC(=O)[C@H](CC(C)C)NC(=O)[C@H](CCC(N)=O)NC(=O)[C@H](CC)NC(=O)[C@H](CC(C)C)NC(=O)[C@@H](NC(=O)[C@H](CCCCN)NC(=O)[C@H](CCCNC(=N)N)NC(=O)[C@H](Cc1ccc(O)cc1)NC(=O)[C@H](CO)NC(=O)[C@H](CC(N)=O)NC(=O)[C@@H](NC(=O)[C@H](Cc1ccccc1)NC(=O)[C@@H](NC(=O)[C@H](C)NC(=O)[C@H](CC(=O)O)NC(=O)[C@H](C)NC(=O)CCc1ccc(O)cc1)[C@@H](C)CC)[C@@H](C)O)C(C)C)[C@@H](C)CC)C(=O)N[C@@H](CO)C(=O)NCCCCNC(=N)N [Example II, (Dat^1,Abu^15,Orn^21,Nle^27,Agm^29)hGH-RH(1-29)] (Desaminotyrosyl-ADAIFTNSYRKVL[Abu]QLSAR[Orn]LLQDI[Nle]S-Agmatine)	6.4	
CCCC[C@H](NC(=O)[C@@H](NC(=O)[C@H](CC(=O)O)NC(=O)[C@H](CCC(N)=O)NC(=O)[C@H](CC(C)C)NC(=O)[C@H](CC(C)C)NC(=O)[C@H](CCCCN)NC(=O)[C@H](CCCNC(=N)N)NC(=O)[C@H](C)NC(=O)[C@H](CO)NC(=O)[C@H](CC(C)C)NC(=O)[C@H](CCC(N)=O)NC(=O)[C@H](CC)NC(=O)[C@H](CC(C)C)NC(=O)[C@@H](NC(=O)[C@H](CCCN)NC(=O)[C@H](CCCNC(=N)N)NC(=O)[C@H](Cc1ccc(O)cc1)NC(=O)[C@H](CO)NC(=O)[C@H](CC(N)=O)NC(=O)[C@@H](NC(=O)[C@H](Cc1ccccc1)NC(=O)[C@@H](NC(=O)[C@H](C)NC(=O)[C@H](CC(=O)O)NC(=O)[C@H](C)NC(=O)CCc1ccc(O)cc1)[C@@H](C)CC)[C@@H](C)O)C(C)C)[C@@H](C)CC)C(=O)N[C@@H](CO)C(=O)NCCCCNC(=N)N [Example III, (Dat^1,Orn^12,Abu^15,Nle^27,Agm^29)hGH-RH(1-29)] (Desaminotyrosyl-ADAIFTNSYR[Orn]VL[Abu]QLSARKLLQDI[Nle]S-Agmatine)	3.8	
hGH-RH(1-29)NH2 (YADAIFTNSYRKVLGQLSARKLLQDIMSR-NH2; UniProt P01286 32-60, looked up, fragment)		approximately 50%

Source: patent US5792747A, “Highly potent agonists of growth hormone releasing hormone” (The Administrators of the Tulane Educational Fund, priority 1995, dated 1998)
